Blank lines part the entries; values can stand above or below the compound they belong to.
Tests used:
Homo sapiens [1] = species: Homo sapiens; test: Reduction in body weight in overweight/obese patient with hypertension at 7 mg relative to control; assay type: functional
Homo sapiens [2] = species: Homo sapiens; test: Reduction in HDL-cholesterol in overweight/obese patient with hypertension at 7 mg relative to control; assay type: functional; design: scale not given: the % may be the effect or the level left
Homo sapiens [3] = species: Homo sapiens; test: Toxicity in overweight/obese patient with hypertension assessed as increase in adrenal androgen level at 7 mg/day relative to control; assay type: organism-based; conditions: in vivo
Homo sapiens [4] = species: Homo sapiens; test: Reduction in LDL-cholesterol in overweight/obese patient with hypertension at 7 mg relative to control; assay type: functional; design: scale not given: the % may be the effect or the level left
Cynomolgus monkey [5] = test: Reduction in plasma insulin level in cynomolgus monkey at 0.1 to 3 mg/kg; assay type: functional, Macaca fascicularis; conditions: dose mg/kg 0.1-3
Homo sapiens [6] = species: Homo sapiens; test: Reduction in 5alpha/5beta-tetrahydrocortisol to tetrahydrocortisone ratio in healthy human at 15 mg qd relative to control; assay type: functional
Cynomolgus monkey [7] = test: In vivo inhibition of 11beta-HSD1 in cynomolgus monkey assessed as inhibition of prednisone to prednisolone conversion at 0.1 to 3 mg/kg relative to control; assay type: functional, Macaca fascicularis; conditions: dose mg/kg 0.1-3
[8] = Clearance in healthy human by 14 day test; assay type: ADME, organism-based; conditions: in vivo
[9] = Drug excretion in healthy human urine; assay type: ADME, tissue-based; conditions: read-out: Drug excretion
Homo sapiens [10] = species: Homo sapiens; test: Inhibition of prednisone to prednisolone conversion in healthy human at 15 mg qd relative to control; assay type: functional
[11] = Tmax in healthy human by 14 day test; assay type: ADME, organism-based; conditions: in vivo
[12] = Elimination half life in healthy human by 14 day test; assay type: ADME, organism-based; conditions: in vivo, read-out: beta t1/2 (converted)
[13] = target: T1, 11-beta-hydroxysteroid dehydrogenase 1 (Mus musculus, UniProt P50172); test: Inhibition of mouse 11beta-HSD1
[14] = Oral bioavailability in mouse; assay type: ADME, organism-based; conditions: in vivo
[15] = Clearance in mouse; assay type: ADME, organism-based; conditions: in vivo
Homo sapiens [16] = species: Homo sapiens; test: Toxicity in type 2 diabetic patient assessed as increase in circulating adrenal androgen at 6 mg/day relative to placebo-control; assay type: organism-based; conditions: in vivo
Homo sapiens [17] = species: Homo sapiens; test: Toxicity in type 2 diabetic patient assessed as increase in LDL-cholesterol level at 6 mg/day relative to placebo-control; assay type: organism-based; conditions: in vivo
Homo sapiens [18] = species: Homo sapiens; test: Reduction in hBA1c in type 2 diabetic patient; assay type: functional; design: scale not given: the % may be the effect or the level left
[19] = target: T2, 11-beta-hydroxysteroid dehydrogenase type 2 (Homo sapiens, UniProt P80365); test: Inhibition of human 11beta-HSD2
T2 sequence (P80365 whole entry): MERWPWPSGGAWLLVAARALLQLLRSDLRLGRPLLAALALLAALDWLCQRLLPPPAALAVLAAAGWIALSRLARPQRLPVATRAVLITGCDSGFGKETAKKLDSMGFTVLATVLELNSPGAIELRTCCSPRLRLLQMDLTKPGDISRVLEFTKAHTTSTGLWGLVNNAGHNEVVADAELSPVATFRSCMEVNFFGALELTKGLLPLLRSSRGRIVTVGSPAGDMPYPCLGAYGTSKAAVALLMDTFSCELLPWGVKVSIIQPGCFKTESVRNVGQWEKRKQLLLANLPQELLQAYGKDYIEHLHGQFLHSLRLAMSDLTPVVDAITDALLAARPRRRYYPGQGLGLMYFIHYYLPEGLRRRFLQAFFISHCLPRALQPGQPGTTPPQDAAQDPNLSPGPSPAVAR

[20] = Inhibition of N-terminal His-tagged full length dog 11beta-HSD1 assessed as inhibition of cortisone to cortisol conversion preincubated for 25 mins measured after 2 hrs by HTRF assay; design: species or system Canis lupus familiaris
Mus musculus [21] = test: Ex vivo inhibition of 11beta-HSD1 in mouse fat at 20 mg/kg relative to control; assay type: functional
[22] = Inhibition of cytochrome P450 (unknown origin); assay type: ADME, Homo sapiens
[23] = Oral bioavailability in rat; assay type: ADME, organism-based; conditions: in vivo
[24] = Clearance in rat; assay type: ADME, organism-based; conditions: in vivo
Mus musculus [25] = test: Reduction in cumulative food intake in diet-induced obese mouse model at 20 mg/kg bid for 11 days relative to vehicle-treated control; assay type: functional; design: scale not given: the % may be the effect or the level left
Mus musculus [26] = test: Reduction in fasting blood glucose level in high fat diet-fed STZ-induced diabetes mouse model at 30 mg/kg bid for 9 days relative to vehicle-treated control; assay type: functional; design: scale not given: the % may be the effect or the level left
Mus musculus [27] = test: Reduction in fasting blood glucose level in diet-induced obese mouse model at 20 mg/kg bid for 11 days relative to vehicle-treated control; assay type: functional; design: scale not given: the % may be the effect or the level left
Mus musculus [28] = test: Reduction in aortic total cholesterol accumulation in high fat diet-fed mouse model at 10 mg/kg/day for 8 weeks relative to vehicle-treated control; design: scale not given: the % may be the effect or the level left
[29] = target: T3, 11-beta-hydroxysteroid dehydrogenase type 2 (Mus musculus, UniProt P51661); test: Inhibition of mouse 11beta-HSD2
T3 sequence (P51661 whole entry): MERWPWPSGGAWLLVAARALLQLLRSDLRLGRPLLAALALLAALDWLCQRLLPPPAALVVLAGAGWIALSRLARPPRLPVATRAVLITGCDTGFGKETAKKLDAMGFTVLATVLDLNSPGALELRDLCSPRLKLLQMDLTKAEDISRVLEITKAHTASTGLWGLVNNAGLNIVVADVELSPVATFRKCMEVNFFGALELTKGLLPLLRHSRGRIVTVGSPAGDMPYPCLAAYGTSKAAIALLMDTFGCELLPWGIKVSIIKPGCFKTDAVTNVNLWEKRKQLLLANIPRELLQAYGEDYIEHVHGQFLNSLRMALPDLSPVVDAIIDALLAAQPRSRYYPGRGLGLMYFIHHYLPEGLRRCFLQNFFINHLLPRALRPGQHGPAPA

Mus musculus [30] = test: In vivo inhibition of 11beta-HSD1 in mouse assessed as inhibition of [3H]cortisone to [3H]cortisol conversion at 10 mg/kg, po measured after 4 hrs relative to control; assay type: functional
Mus musculus [31] = test: In vivo inhibition of 11beta-HSD1 in mouse assessed as inhibition of [3H]cortisone to [3H]cortisol conversion at 10 mg/kg, po measured after 1 hr relative to control; assay type: functional
Mus musculus [32] = test: Reduction in postprandial blood glucose level in high fat diet-fed STZ-induced diabetes mouse model at 30 mg/kg bid for 9 days relative to vehicle-treated control; assay type: functional; design: scale not given: the % may be the effect or the level left
Mus musculus [33] = test: Reduction in body weight in diet-induced obese mouse model at 20 mg/kg bid for 11 days relative to vehicle-treated control; assay type: functional; design: scale not given: the % may be the effect or the level left
[34] = target: 11-beta-hydroxysteroid dehydrogenase 1 (Homo sapiens, UniProt P28845); test: Inhibition of human 11beta-HSD1
Mus musculus [35] = species: Mus musculus; test: Reduction in liver corticosterone level in adrenalectomized mouse model; assay type: functional
[36] = target: T1, 11-beta-hydroxysteroid dehydrogenase 1; test: Inhibition of mouse 11beta-HSD1 expressed in HEK293 cells; assay type: cell-based
[37] = target: 11-beta-hydroxysteroid dehydrogenase 1 (Rattus norvegicus, UniProt P16232); test: Inhibition of rat 11beta-HSD1 expressed in HEK293 cells; assay type: cell-based
Mus musculus [38] = test: Reduction in plasma glucose level in ob/ob mouse at 200 mg/kg/day for 5 days measured after 5 days; assay type: functional; design: scale not given: the % may be the effect or the level left
[39] = target: Voltage-gated inwardly rectifying potassium channel KCNH2 (Homo sapiens, UniProt Q12809); test: Inhibition of human ERG
Mus musculus [40] = test: In vivo inhibition of 11beta-HSD1 in mouse assessed as inhibition of cortisone to cortisol conversion at 5 mg/kg relative to control; assay type: functional
Mus musculus [41] = test: In vivo inhibition of 11beta-HSD1 in mouse assessed as inhibition of cortisone to cortisol conversion at 100 mg/kg relative to control; assay type: functional

T1 sequence (P50172 whole entry): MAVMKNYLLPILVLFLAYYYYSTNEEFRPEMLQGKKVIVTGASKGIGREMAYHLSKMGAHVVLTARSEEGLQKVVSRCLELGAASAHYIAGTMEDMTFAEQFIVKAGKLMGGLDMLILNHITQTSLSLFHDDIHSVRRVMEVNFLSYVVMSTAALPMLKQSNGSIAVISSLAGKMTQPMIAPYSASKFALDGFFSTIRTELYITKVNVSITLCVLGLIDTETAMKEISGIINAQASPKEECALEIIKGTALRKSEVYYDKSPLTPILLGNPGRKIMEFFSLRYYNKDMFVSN
Chain of Voltage-gated inwardly rectifying potassium channel KCNH2 (Q12809 whole entry): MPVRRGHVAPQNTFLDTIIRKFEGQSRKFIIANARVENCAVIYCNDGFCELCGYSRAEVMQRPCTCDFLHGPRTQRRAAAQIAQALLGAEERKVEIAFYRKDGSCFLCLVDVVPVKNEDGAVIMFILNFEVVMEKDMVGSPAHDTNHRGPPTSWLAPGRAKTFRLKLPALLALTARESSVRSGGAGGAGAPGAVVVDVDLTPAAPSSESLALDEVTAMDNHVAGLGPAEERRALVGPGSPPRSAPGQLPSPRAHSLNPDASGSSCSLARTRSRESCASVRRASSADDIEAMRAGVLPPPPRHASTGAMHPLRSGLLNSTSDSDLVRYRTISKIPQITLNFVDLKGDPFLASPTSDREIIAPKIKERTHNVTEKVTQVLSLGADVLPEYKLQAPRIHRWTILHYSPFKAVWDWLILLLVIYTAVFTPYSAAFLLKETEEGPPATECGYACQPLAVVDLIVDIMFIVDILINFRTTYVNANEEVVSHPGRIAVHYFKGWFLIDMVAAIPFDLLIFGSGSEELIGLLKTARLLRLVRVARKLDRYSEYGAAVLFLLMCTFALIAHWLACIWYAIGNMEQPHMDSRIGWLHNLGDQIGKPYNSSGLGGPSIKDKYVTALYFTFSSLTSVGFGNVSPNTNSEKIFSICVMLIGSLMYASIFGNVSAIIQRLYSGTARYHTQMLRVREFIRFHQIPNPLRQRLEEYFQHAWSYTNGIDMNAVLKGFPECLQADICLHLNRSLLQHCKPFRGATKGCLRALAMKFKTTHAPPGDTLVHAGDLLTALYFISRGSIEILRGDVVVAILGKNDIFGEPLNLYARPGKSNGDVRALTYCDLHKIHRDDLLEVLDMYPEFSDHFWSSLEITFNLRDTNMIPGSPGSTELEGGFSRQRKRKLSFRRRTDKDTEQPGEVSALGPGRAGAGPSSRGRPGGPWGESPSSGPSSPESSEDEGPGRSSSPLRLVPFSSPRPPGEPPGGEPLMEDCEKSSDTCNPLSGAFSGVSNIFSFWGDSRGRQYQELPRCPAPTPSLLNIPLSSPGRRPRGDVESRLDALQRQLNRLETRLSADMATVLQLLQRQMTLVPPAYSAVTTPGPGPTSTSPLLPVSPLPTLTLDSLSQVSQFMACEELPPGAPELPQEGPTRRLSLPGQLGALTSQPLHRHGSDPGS
Chain of 11-beta-hydroxysteroid dehydrogenase 1 (Rattus norvegicus, UniProt P16232) (P16232 whole entry): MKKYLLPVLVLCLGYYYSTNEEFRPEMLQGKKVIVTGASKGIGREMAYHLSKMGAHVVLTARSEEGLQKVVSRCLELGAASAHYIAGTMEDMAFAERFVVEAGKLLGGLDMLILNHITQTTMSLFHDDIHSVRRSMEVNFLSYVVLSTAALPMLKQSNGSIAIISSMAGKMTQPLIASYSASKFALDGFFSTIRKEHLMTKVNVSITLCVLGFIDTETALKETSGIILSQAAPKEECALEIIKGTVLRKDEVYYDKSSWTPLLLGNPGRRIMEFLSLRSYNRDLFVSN
Chain of 11-beta-hydroxysteroid dehydrogenase 1 (Homo sapiens, UniProt P28845) (P28845 whole entry): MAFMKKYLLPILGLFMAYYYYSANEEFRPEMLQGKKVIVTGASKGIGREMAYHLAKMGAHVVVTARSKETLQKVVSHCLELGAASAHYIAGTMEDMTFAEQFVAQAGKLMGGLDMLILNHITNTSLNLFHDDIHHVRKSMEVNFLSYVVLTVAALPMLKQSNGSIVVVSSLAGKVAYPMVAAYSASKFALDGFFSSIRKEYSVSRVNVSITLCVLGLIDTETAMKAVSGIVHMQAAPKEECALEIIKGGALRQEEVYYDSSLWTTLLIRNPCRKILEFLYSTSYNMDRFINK

SMILES: CCS(=O)(=O)CCCC12CCC(c3nnc(-c4ccccc4C(F)(F)F)n3C)(CC1)CC2 [MK-0736]
Activity (Homo sapiens [1]): -1.4 kg
Activity (Homo sapiens [2]): -6.3%
fold change (FC) (Homo sapiens [3]): 2
Activity (Homo sapiens [4]): -12.3%

SMILES: F[C@H]1C[C@](c2ccc(Cl)cc2)(c2nnc(C3CC3)n2C2CC2)C1
Activity (Homo sapiens [16]): 20%
Activity (Homo sapiens [17]): 10.4%
Activity (Homo sapiens [18]): -0.3%

SMILES: Cc1c(Cl)cccc1S(=O)(=O)Nc1nc(CC(=O)N2CCN(C)CC2)cs1
IC50 [19]: > 10000 nM
bioavailability [14]: 21%

SMILES: CSc1nc(N2C[C@@H]3[C@H](C2)[C@H]3C(=O)O)ccc1C(=O)NC12CC3CC(CC(C3)C1)C2
IC50 [20]: 120 nM

SMILES: C1CCc2nnc(C34CC5CC(CC(C5)C3)C4)n2CC1
Activity (Mus musculus [25]): 12%
Activity (Mus musculus [26]): 37%
Activity (Mus musculus [27]): 15%
Activity (Mus musculus [28]): 84%
IC50 [29]: > 10000 nM
IC50 [19]: > 3000 nM
inhibition in vivo at 10 mg/kg (Mus musculus [30]): 17%
inhibition in vivo at 10 mg/kg (Mus musculus [31]): 59%
Activity (Mus musculus [32]): 37%
Activity (Mus musculus [33]): 7%
IC50 [34]: 8 nM

SMILES: Cn1c(-c2ccccc2)nnc1C12CC3CC(CC(C3)C1)C2 [FIG 1]
inhibition in vivo at 10 mg/kg (Mus musculus [30]): 47%
inhibition in vivo at 10 mg/kg (Mus musculus [31]): 85%

SMILES: COc1cc(C(=O)Nc2ccc(C(=O)N3CCCCC3)c(O)c2)cc(OC)c1OC
inhibition (INH) (Mus musculus [35]): 73%

SMILES: O=C(CN1C(C(=O)c2ccccc2)=C(O)c2ccccc2S1(=O)=O)c1ccccc1
Activity (Mus musculus [38]): -27%
IC50 [39]: > 100000 nM

SMILES: CCN1CCC[C@@H]1C(=O)NC1C2CC3CC(C2)CC1C3 (stereo partly specified)
%max (Mus musculus [40]): 50%
%max (Mus musculus [41]): 82%

Continued, in another order:

clearance [8]: 16.7 mL/min
dose excreted [9]: < 1%
Tmax [11]: 1 h
half-life [12]: 30 h
SMILES: N#Cc1ccc(-c2ccc(S(=O)(=O)Nc3cccc(N)n3)cc2)cc1
%max (Cynomolgus monkey [5]): 60%
%max (Homo sapiens [6]): 26%
%max (Cynomolgus monkey [7]): 87%
%max (Homo sapiens [10]): 37%

IC50 [13]: 18 nM
SMILES: Cc1c(Cl)cccc1S(=O)(=O)N1CCC[C@H](C(=O)N[C@H]2C[C@@H]3CC[C@@]2(C)C3(C)C)C1

IC50 [13]: 15 nM
bioavailability [14]: 3%
clearance [15]: 130 mL/min/kg
SMILES: Cc1c(Cl)cccc1S(=O)(=O)N1CCCC[C@@H]1C(=O)N[C@H]1C2CC3CC1C[C@](O)(C3)C2

IC50 [13]: 350 nM
bioavailability [14]: 22%
clearance [15]: 42 mL/min/kg
SMILES: CC1(C)C(=O)N(c2cccc(S(C)(=O)=O)c2)C1c1cccc2nccnc12 (stereo unspecified)

IC50 [19]: > 10000 nM
SMILES: CCN(CC)C(=O)Cc1csc(NS(=O)(=O)c2cccc(Cl)c2C)n1

IC50 [22]: > 100000 nM
bioavailability [23]: 69%
clearance [24]: 11.7 mL/min/kg
SMILES: CC1CN(CC(=O)N[C@H]2C3CC4CC2C[C@](C(N)=O)(C4)C3)S(=O)(=O)N(c2c(Cl)cc(Cl)cc2Cl)C1 (stereo partly specified)
inhibition in vivo at 20 mg/kg (Mus musculus [21]): 96%

IC50 [13]: 307 nM
SMILES: CN(C(=O)c1csc(CNS(=O)(=O)c2cccc(Cl)c2)n1)C1CCCCCC1

IC50 [36]: 528 nM
IC50 [37]: 287 nM
SMILES: CS(=O)(=O)NCCC(=O)N1CCC(c2cc(C(=O)N3CCC[C@H]4CCCC[C@H]43)cs2)CC1

Source: ChEMBL document CHEMBL3286258, “Medicinal chemistry of inhibitors of 11β-hydroxysteroid dehydrogenase type 1 (11β-HSD1)” (J Med Chem, 2014)
